# Test results published in article PMC6691788, “Design and synthesis of phthalazine-based compounds as potent anticancer agents with potential antiangiogenic activity via VEGFR-2 inhibition” (Journal of Enzyme Inhibition and Medicinal Chemistry, 2019).
# Key:
# Test in all cases: NCI 60 cell panel SRB screen
# CCRF-CEM = format: cell-based, human
# K-562 = format: cell-based; details: Homo sapiens, K562
# MOLT-4 = format: cell-based; details: Homo sapiens
# RPMI-8226 = format: cell-based; details: Homo sapiens
# SR = format: cell-based; details: Homo sapiens
# HOP-62 = format: cell-based; details: Homo sapiens
# HOP-92 = format: cell-based; details: Homo sapiens
# NCI-H226 = format: cell-based; details: Homo sapiens
# NCI-H322M = format: cell-based; details: Homo sapiens
# HCC-2998 = format: cell-based; details: Homo sapiens
# HCT-116 = format: cell-based; details: Homo sapiens
# HCT-15 = format: cell-based; details: Homo sapiens
# KM12 = format: cell-based; details: Homo sapiens
# SF-268 = format: cell-based; details: Homo sapiens
# SNB-19 = format: cell-based; details: Homo sapiens
# [1] = 5 log dose, 48 h, read-out: LC50 (the source's name)
# [2] = single dose 10 μM, read-out: percent cell growth promotion
structure (smiles),measurement,setting,value
"Clc1ccc(Nc2nnc(CNc3ccccc3)c3ccccc23)cc1 [Compound 16a, N-(4-Chlorophenyl)-4-((phenylamino)methyl)phthalazin-1-amine]",TGI,CCRF-CEM; 5 log dose,17.6 µM
same,GI50,"CCRF-CEM; Homo sapiens, 5 log dose",3.53 µM
same,CC50,"CCRF-CEM; Homo sapiens, 5 log dose, 48 h, read-out: LC50 (the source's name)",> 25 µM
same,activity at 10 µM,"CCRF-CEM; Homo sapiens, single dose 10 μM, read-out: percent cell growth promotion",12.4%
same,GI50,"K-562; K-562, 5 log dose",1.71 µM
same,IC (TGI),"K-562; K-562, 5 log dose",14.5 µM
same,CC50,"K-562; K-562, 5 log dose, 48 h, read-out: LC50 (the source's name)",> 25 µM
same,activity at 10 µM,"K-562; K-562, single dose 10 μM, read-out: percent cell growth promotion",5.39%
same,GI50,"MOLT-4; MOLT-4, 5 log dose",1.71 µM
same,IC (TGI),"MOLT-4; MOLT-4, 5 log dose",8.75 µM
same,CC50,"MOLT-4; MOLT-4, 5 log dose, 48 h, read-out: LC50 (the source's name)",> 25 µM
same,activity at 10 µM,"MOLT-4; MOLT-4, single dose 10 μM, read-out: percent cell growth promotion",-9.21%
same,GI50,"RPMI-8226; RPMI-8226, 5 log dose",2.1 µM
same,IC (TGI),"RPMI-8226; RPMI-8226, 5 log dose",7.71 µM
same,CC50,"RPMI-8226; RPMI-8226, 5 log dose, 48 h, read-out: LC50 (the source's name)",> 25 µM
same,activity at 10 µM,"RPMI-8226; RPMI-8226, single dose 10 μM, read-out: percent cell growth promotion",3.35%
same,GI50,SR; 5 log dose,1.75 µM
same,IC (TGI),SR; 5 log dose,12.3 µM
same,CC50,SR; [1],> 25 µM
same,activity at 10 µM,SR; [2],-9.19%
same,GI50,"HOP-62; HOP-62, 5 log dose",2.86 µM
same,IC (TGI),"HOP-62; HOP-62, 5 log dose",8.84 µM
same,CC50,"HOP-62; HOP-62, 5 log dose, 48 h, read-out: LC50 (the source's name)",> 25 µM
same,activity at 10 µM,"HOP-62; HOP-62, single dose 10 μM, read-out: percent cell growth promotion",27.4%
same,GI50,"HOP-92; HOP-92, 5 log dose",0.77 µM
same,IC (TGI),"HOP-92; HOP-92, 5 log dose",6.29 µM
same,CC50,"HOP-92; HOP-92, 5 log dose, 48 h, read-out: LC50 (the source's name)",> 25 µM
same,activity at 10 µM,"HOP-92; HOP-92, single dose 10 μM, read-out: percent cell growth promotion",-19.4%
same,GI50,"NCI-H226; NCI-H226, 5 log dose",2.52 µM
same,IC (TGI),"NCI-H226; NCI-H226, 5 log dose",7.98 µM
same,CC50,"NCI-H226; NCI-H226, 5 log dose, 48 h, read-out: LC50 (the source's name)",> 25 µM
same,activity at 10 µM,"NCI-H226; NCI-H226, single dose 10 μM, read-out: percent cell growth promotion",25%
same,GI50,NCI-H322M; 5 log dose,3.54 µM
same,IC (TGI),NCI-H322M; 5 log dose,18.3 µM
same,CC50,NCI-H322M; [1],> 25 µM
same,activity at 10 µM,NCI-H322M; [2],30.4%
same,GI50,"HCC-2998; HCC-2998, 5 log dose",4.85 µM
same,IC (TGI),"HCC-2998; HCC-2998, 5 log dose",1.59 µM
same,LC50 (50% lethal concentration),"HCC-2998; HCC-2998, 5 log dose, 48 h",> 25 µM
same,activity at 10 µM,"HCC-2998; HCC-2998, single dose 10 μM, read-out: percent cell growth promotion",18.3%
same,GI50,"HCT-116; HCT-116, 5 log dose",1.2 µM
same,IC (TGI),"HCT-116; HCT-116, 5 log dose",5.02 µM
same,LC50 (lethal concentration 50%),"HCT-116; HCT-116, 5 log dose, 48 h",13.3 µM
same,activity at 10 µM,"HCT-116; HCT-116, single dose 10 μM, read-out: percent cell growth promotion",9.94%
same,GI50,"HCT-15; HCT-15, 5 log dose",2.99 µM
same,IC (TGI),"HCT-15; HCT-15, 5 log dose",9.39 µM
same,CC50,"HCT-15; HCT-15, 5 log dose, 48 h, read-out: LC50 (the source's name)",> 25 µM
same,activity at 10 µM,"HCT-15; HCT-15, single dose 10 μM, read-out: percent cell growth promotion",13.4%
same,GI50,"KM12; KM12, 5 log dose",3.05 µM
same,IC (TGI),"KM12; KM12, 5 log dose",9.91 µM
same,CC50,"KM12; KM12, 5 log dose, 48 h, read-out: LC50 (the source's name)",> 25 µM
same,activity at 10 µM,"KM12; KM12, single dose 10 μM, read-out: percent cell growth promotion",8.93%
same,GI50,"SF-268; SF-268, 5 log dose",3.28 µM
same,IC (TGI),"SF-268; SF-268, 5 log dose",14.5 µM
same,CC50,"SF-268; SF-268, 5 log dose, 48 h, read-out: LC50 (the source's name)",> 25 µM
same,activity at 10 µM,"SF-268; SF-268, single dose 10 μM, read-out: percent cell growth promotion",20.9%
same,GI50,"SNB-19; SNB-19, 5 log dose",4.71 µM
same,IC (TGI),"SNB-19; SNB-19, 5 log dose",22.7 µM
same,CC50,"SNB-19; SNB-19, 5 log dose, 48 h, read-out: LC50 (the source's name)",> 25 µM
same,activity at 10 µM,"SNB-19; SNB-19, single dose 10 μM, read-out: percent cell growth promotion",25.9%
